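Assay format: 96-well plates, 48-hour exposure. The concentration for 50% growth inhibition is given as GI50.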 The source made the active and inactive calls. No stated cut-off is given here; in the data, active = GI50 up to about 1.1 µM and inactive = higher.
Experiments:
Test in all cases: inhibition of tumour cell growth, NCI panel, 48 h
NCI/ADR-RES = test system: NCI/ADR-RES
SNB-19 = test system: SNB-19
OVCAR-3 = test system: OVCAR-3
OVCAR-4 = test system: OVCAR-4
CCRF-CEM = test system: CCRF-CEM
LOX IMVI = test system: LOX IMVI
M14 = test system: M14
A498 = test system: A498
U-251 = test system: U-251
HCT-116 = test system: HCT-116
SK-MEL-2 = test system: SK-MEL-2
OVCAR-5 = test system: OVCAR-5
UACC-62 = test system: UACC-62
COLO 205 = test system: COLO 205
HOP-92 = test system: HOP-92
TK-10 = test system: TK-10
NCI-H522 = test system: NCI-H522
UO-31 = test system: UO-31
MCF7 = test system: MCF7

SMILES | GI50 (NCI/ADR-RES) | GI50 (SNB-19) | GI50 (OVCAR-3) | GI50 (OVCAR-4) | GI50 (CCRF-CEM) | GI50 (LOX IMVI) | GI50 (M14) | GI50 (A498) | GI50 (U-251) | GI50 (HCT-116) | GI50 (SK-MEL-2) | GI50 (OVCAR-5) | GI50 (UACC-62) | GI50 (COLO 205) | GI50 (HOP-92) | GI50 (TK-10) | GI50 (NCI-H522) | GI50 (UO-31) | GI50 (MCF7)
CCOC(=O)N1[C@@H]2CCC[C@@H]2C(=O)[C@@H]2CCC[C@@H]21 | > 100 µM (inactive) | > 100 µM (inactive) | > 100 µM (inactive) | > 100 µM (inactive) | > 100 µM (inactive) | > 100 µM (inactive) | > 100 µM (inactive) | > 100 µM (inactive) | > 100 µM (inactive) | > 100 µM (inactive) | > 100 µM (inactive) | > 100 µM (inactive) | > 100 µM (inactive) | > 100 µM (inactive) | > 100 µM (inactive) |  |  |  | 
NC1CCCCC1.O=P(O)(O)C1(P(=O)(O)O)CC1 |  | > 100 µM (inactive) | > 100 µM (inactive) | > 100 µM (inactive) | > 100 µM (inactive) | > 100 µM (inactive) | > 100 µM (inactive) | > 100 µM (inactive) | > 100 µM (inactive) | > 100 µM (inactive) | > 100 µM (inactive) | > 100 µM (inactive) | > 100 µM (inactive) | > 100 µM (inactive) |  | > 100 µM (inactive) | > 100 µM (inactive) | > 100 µM (inactive) | 
O=c1cc(NNc2ccc3ccccc3c2)[nH]c(=S)[nH]1 | > 100 µM (inactive) | 94.8 µM (inactive) | 19.3 µM (inactive) | 68.7 µM (inactive) |  | 13 µM (inactive) | 33.2 µM (inactive) | > 100 µM (inactive) | 27 µM (inactive) | 39.9 µM (inactive) |  | > 100 µM (inactive) |  | 23.2 µM (inactive) | 28.1 µM (inactive) | > 100 µM (inactive) |  | > 100 µM (inactive) | 4.31 µM (inactive)
Cc1ccc(S(=O)(=O)ON2C(=O)c3cccc4cc([N+](=O)[O-])cc(c34)C2=O)cc1 | > 100 µM (inactive) | 57.8 µM (inactive) | 35.3 µM (inactive) | 93.1 µM (inactive) |  | 32 µM (inactive) | > 100 µM (inactive) |  | > 100 µM (inactive) | 45.3 µM (inactive) | 84.5 µM (inactive) | > 100 µM (inactive) | 49.9 µM (inactive) | 81.5 µM (inactive) | 50.5 µM (inactive) | 42.9 µM (inactive) | 56.2 µM (inactive) | 42.1 µM (inactive) | 33.7 µM (inactive)
CCOC(=O)NC(Nc1ncn(C(NC(=O)OCC)(C(F)(F)F)C(F)(F)F)n1)(C(F)(F)F)C(F)(F)F | > 100 µM (inactive) | > 100 µM (inactive) | > 100 µM (inactive) | > 100 µM (inactive) | > 100 µM (inactive) | > 100 µM (inactive) | > 100 µM (inactive) | > 100 µM (inactive) | > 100 µM (inactive) | > 100 µM (inactive) |  | > 100 µM (inactive) | > 100 µM (inactive) | > 100 µM (inactive) | > 100 µM (inactive) | > 100 µM (inactive) |  | 12.2 µM (inactive) | > 100 µM (inactive)
O=C(CCCNc1nc(-c2ccccc2)cs1)c1cccs1 | > 100 µM (inactive) | > 100 µM (inactive) | > 100 µM (inactive) | > 100 µM (inactive) |  | > 100 µM (inactive) | > 100 µM (inactive) |  | > 100 µM (inactive) | > 100 µM (inactive) | > 100 µM (inactive) | > 100 µM (inactive) | > 100 µM (inactive) | > 100 µM (inactive) |  | > 100 µM (inactive) | > 100 µM (inactive) | > 100 µM (inactive) | > 100 µM (inactive)
O=C1/C(=c2\s/c(=C\c3ccccc3)c(=O)n2-c2ccccc2)SC(=S)N1c1ccccc1 | 28 µM (inactive) | 46.1 µM (inactive) | 27.2 µM (inactive) | 29.4 µM (inactive) | 32.8 µM (inactive) | 26.9 µM (inactive) | > 100 µM (inactive) | 39.2 µM (inactive) | 23.4 µM (inactive) | 58.9 µM (inactive) | 32.3 µM (inactive) | > 100 µM (inactive) | 35.6 µM (inactive) | 63.5 µM (inactive) | 33 µM (inactive) | 28.9 µM (inactive) |  |  | 53.5 µM (inactive)
Cc1c2cc[n+](COC(=O)c3ccccc3)cc2c(C)c2c1[nH]c1ccccc12 |  | 0.778 µM (active) | 1.37 µM (inactive) | 0.587 µM (active) | 0.434 µM (active) | 0.436 µM (active) |  | 1.23 µM (inactive) | 0.515 µM (active) | 0.298 µM (active) |  | 0.824 µM (active) | 1.5 µM (inactive) | 0.43 µM (active) | 0.682 µM (active) | 1.58 µM (inactive) | 1.08 µM (active) | 2.03 µM (inactive) | 
OC(c1ccc(-c2ccccc2)cc1)(c1ccc(-c2ccccc2)cc1)c1ccc(-c2ccccc2)cc1 | > 100 µM (inactive) | > 100 µM (inactive) | > 100 µM (inactive) | > 100 µM (inactive) | > 10 µM (inactive) | > 100 µM (inactive) | 52.7 µM (inactive) |  | > 100 µM (inactive) | > 100 µM (inactive) |  | > 100 µM (inactive) | > 100 µM (inactive) | > 100 µM (inactive) |  | > 100 µM (inactive) | > 100 µM (inactive) | > 100 µM (inactive) | > 100 µM (inactive)
COc1ccc(C2C3=C(Nc4ncnn42)c2ccccc2OC3c2ccccc2)cc1 (stereo not drawn) | 47.8 µM (inactive) | > 100 µM (inactive) | 27.8 µM (inactive) |  |  | 61.8 µM (inactive) | 61.8 µM (inactive) | 1.03 µM (active) | 42.3 µM (inactive) | 18.9 µM (inactive) | 6 µM (inactive) | 89.1 µM (inactive) | 17.3 µM (inactive) | 23.7 µM (inactive) |  |  |  | 50.1 µM (inactive) | 13.5 µM (inactive)
CC(C)(NO)/C(=N\O)c1ccco1 | > 100 µM (inactive) | > 100 µM (inactive) | > 100 µM (inactive) | > 100 µM (inactive) |  | > 100 µM (inactive) | > 100 µM (inactive) |  | > 100 µM (inactive) | > 100 µM (inactive) | > 100 µM (inactive) | > 100 µM (inactive) | > 100 µM (inactive) | > 100 µM (inactive) | > 100 µM (inactive) | > 100 µM (inactive) |  | > 100 µM (inactive) | > 100 µM (inactive)
COc1cc(CNc2nc3cc(C(F)(F)F)ccc3nc2-c2ccccc2)cc(OC)c1OC | 14.8 µM (inactive) | > 100 µM (inactive) | 24.6 µM (inactive) |  | 24.9 µM (inactive) | 28.6 µM (inactive) | 30.5 µM (inactive) |  | 27 µM (inactive) | 19.1 µM (inactive) |  |  | 8.53 µM (inactive) | 17.1 µM (inactive) |  | > 100 µM (inactive) | 22.3 µM (inactive) | 31.6 µM (inactive) | 1.52 µM (inactive)
Cc1cccc(/C=C2\CCCCCC2=O)c1 |  | > 100 µM (inactive) | > 100 µM (inactive) | > 100 µM (inactive) | 28.8 µM (inactive) | > 100 µM (inactive) | > 100 µM (inactive) | > 100 µM (inactive) | > 100 µM (inactive) | > 100 µM (inactive) | > 100 µM (inactive) | > 100 µM (inactive) | > 100 µM (inactive) | > 100 µM (inactive) | > 100 µM (inactive) | > 100 µM (inactive) | > 100 µM (inactive) | > 100 µM (inactive) | 
O=C(CN1CCCCC1)c1ccc2[nH]c(=O)oc2c1 | > 100 µM (inactive) | > 100 µM (inactive) | > 100 µM (inactive) |  | > 100 µM (inactive) | > 100 µM (inactive) | > 100 µM (inactive) | > 100 µM (inactive) | > 100 µM (inactive) | > 100 µM (inactive) | > 100 µM (inactive) | > 100 µM (inactive) | > 100 µM (inactive) | > 100 µM (inactive) |  | > 100 µM (inactive) |  |  | > 100 µM (inactive)
CC(C)(C)NC(NC(C)(C)C)=C(/C=C(/Cl)[N+](=O)[O-])[N+](=O)[O-] |  | > 100 µM (inactive) | 20 µM (inactive) | 17.1 µM (inactive) | 67.8 µM (inactive) | > 100 µM (inactive) | 27.7 µM (inactive) | > 100 µM (inactive) | > 100 µM (inactive) | 34.3 µM (inactive) | > 100 µM (inactive) | > 100 µM (inactive) | 42.6 µM (inactive) | 26.4 µM (inactive) | > 100 µM (inactive) | > 100 µM (inactive) | > 100 µM (inactive) | > 100 µM (inactive) | 4.46 µM (inactive)
COc1ccc(/N=N/C(=O)NC(CC(C)C)C(=O)NC(C)C(=O)O)cc1 (stereo not drawn) | > 67.9 µM (inactive) | > 100 µM (inactive) | 28.8 µM (inactive) | > 69.5 µM (inactive) | 6.28 µM (inactive) | 4.68 µM (inactive) | 1.29 µM (inactive) | > 100 µM (inactive) | > 100 µM (inactive) | > 34.4 µM (inactive) | > 35.8 µM (inactive) | > 100 µM (inactive) | 0.968 µM (active) | 3.2 µM (inactive) | > 100 µM (inactive) | > 29.9 µM (inactive) |  | 2.38 µM (inactive) | 27.5 µM (inactive)
O=c1c(C(c2ccccc2)c2c(O)oc3cc(O)ccc3c2=O)c(O)oc2cc(O)ccc12 | > 100 µM (inactive) |  | > 100 µM (inactive) | > 100 µM (inactive) | > 100 µM (inactive) | > 100 µM (inactive) | > 100 µM (inactive) | > 100 µM (inactive) | > 100 µM (inactive) | > 100 µM (inactive) | > 100 µM (inactive) | > 100 µM (inactive) | > 100 µM (inactive) | > 100 µM (inactive) | > 100 µM (inactive) | > 100 µM (inactive) |  | > 100 µM (inactive) | > 100 µM (inactive)

— ChEMBL document CHEMBL1201862, “PubChem BioAssay data set” (2004)
